# Test results reported in patent publication US12053506B2, “Romo1-derived antimicrobial peptides and variants thereof” (priority 2019, dated 2024).
# No end group written: not given here.
# Assays:
# [1] = system: multidrug-resistant Pseudomonas aeruginosa; settings: 4 h
# Experimental: First, each of Pseudomonas aeruginosa (ATCC 27853) and Staphylococcus aureus (ATCC 29213) was cultured in 3% (w/v) TSB (Tryptic Soy Broth) liquid medium at 37° C. and 200 rpm for 4 hours, and then further cultured under the same conditions for 3 hours to a concentration of 5×10^6 CFU/ml. Strain solutions were prepared by diluting each of the further cultured strains with SP (sodium phosphate; 10 mM sodium phosphate, 1% TSB) buffer to a final concentration of 2×10^5 CFU/ml.
# Then, each peptide at varying concentrations (0 μg/ml to 300 μg/ml) was dispensed into each well of a 96-well microplate, and 100 μl (1×10^5 CFU/ml) of each of the prepared strain solutions was added thereto, mixed therewith, and allowed to react with the peptide in an incubator at 37° C. for 1 hour.
# In addition, 30 g/L of TS (tryptic soy) and 15 g/L of agar were dissolved in distilled water and sterilized, and then 25 ml of the solution was poured onto a 100 mm round plate and solidified at room temperature for one day or more, thereby preparing a TS agar plate. 10 μl of each reaction solution of the peptide and the strain was plated on the TS agar plate at a constant size, and incubated in an incubator at 37° C. for 18 hours, and then colony formation on the plate was checked.
# Specifically, each type of bacteria was cultured in 3% (w/v) TSB (Tryptic Soy Broth) liquid medium at 37° C. and 200 rpm for 4 hours, and then further cultured under the same conditions for 3 hours to a concentration of 5×10^6 CFU/ml. Strain solutions were prepared by diluting each of the […] of 2×10^5 CFU/ml.
# Then, the KU-5878 peptide at varying concentrations (0 μg/ml to 300 μg/ml) was dispensed into each well of a 96-well microplate, and 100 μl (1×10^5 CFU/ml) of each of the prepared strain solutions was added thereto, mixed therewith, and allowed to react with the peptide in an incubator at 37° C. for 1 hour.
# In addition, 10 μl of each reaction solution of the peptide and the strain was plated on the TS agar plate at a constant size, and incubated in an incubator at 37° C. for 18 hours, and then colony formation on the plate was checked.
# Meanwhile, the multidrug-resistant Pseudomonas aeruginosa, multidrug-resistant Acinetobacter and multidrug-resistant Klebsiella in Table 2 below were bacteria isolated from patients at Korea University Anam Hospital. […] Then, these bacteria were used in the experiment.
# [2] = system: Human vascular endothelial cells (HUVECs); test: Toxicity to human vascular endothelial cells (MTT); type: cell-based; settings: 0 μg/ml to 300 μg/ml; FIG. 5
# Experimental: PBS was used as a control.
# The HUMEC medium was replaced with fresh medium, and KU-5878, melittin or magainin 2 were dispensed at various concentrations (0 μg/ml to 300 μg/ml). Then, each well was treated with 100 μl of MTT reagent and incubated at 37° C. for 2 hours. Then, the medium and the peptide were carefully removed so as not to separate the cells, and 100 μl of DMSO (dimethyl sulfoxide) was added to each well, and the absorbance at a wavelength of 570 nm was measured using a spectrophotometer. Relative cell viability was calculated as a percentage of the viability of untreated control cells.
# [3] = system: mouse red blood cells; type: cell-based
# Experimental: Red blood cells were diluted with PBS, centrifuged 3 times at 900 g for 10 minutes, and washed. 100 μl of the diluted red blood cell solution (10% v/v PBS) was dispensed into each well of a 96-well microplate, and KU-5878, KU-5878-K4, KU-5878-K4-D, melittin, magainin 2 or daptomycin was added to each well which was then filled with PBS to 200 μl, followed by reaction by incubation at 37° C. for 1 hour. Then, the supernatant of the reaction solution was separated, and the absorbance at a wavelength of 550 nm was measured using a spectrophotometer. As control, PBS and 0.1% Triton X-100 (Triton X-100) solution were used.
# Based on the results of measurement of the absorbance, the degree of red blood cell destruction was calculated according to Equation 1 below, and the results of the calculation are shown in FIG. 6. The % intact RBC=100(%)−[(absorbance of peptide-treated red blood cell solution−absorbance of PBS-treated red blood cell solution)/(absorbance of Triton X-100-treated red blood cell solution−absorbance of PBS-treated red blood cell solution)×100(%)] [Equation 1]
# [4] = system: Pseudomonas aeruginosa and Staphylococcus aureus; test: MBC assay, antibacterial activity of Romo1-derived peptides compared in words; type: cell-based; settings: Table 1 peptides
# From the text: Romo1 protein comprises two α-helices. The present inventors synthesized the α-helix 2 region having both hydrophilicity and hydrophobicity, and evaluated the antibacterial activity thereof using minimum bactericidal concentration (MBC) assay. The α-helix 2 region was named KU-5279 (the 52-79 amino acid region of Romo1 protein). Then, in order to identify peptides that are beneficial for human application and have excellent antibacterial activity, the present inventors synthesized several peptides comprising a sequence of contiguous amino acids starting at any amino acid selected from the 52-79 amino acid region of Romo1 protein, and comparatively evaluated the antibacterial activities of the peptides by minimum bactericidal concentration assay (See Table 1 below for information on each peptide). Evaluation of the antibacterial activity of each peptide by minimum bactericidal concentration assay was specifically performed as follows. First, each of Pseudomonas aeruginosa (ATCC 27853) and Staphylococcus aureus (ATCC 29213) was cultured in 3% (w/v) TSB (Tryptic Soy Broth) liquid medium at 37° C. and 200 rpm for 4 hours, and then further cultured under the same conditions for 3 hours to a concentration of 5×10^6 CFU/ml. […]
sequence,measurement,setting,value
KTMMQSGGTFGTFMAIGMGIR [KU-5878],MBC value (μg/ml) against multidrug-resistant Pseudomonas aeruginosa,[1],110 µg/mL
same,"toxicity to the HUVECs (relative cell viability, MTT)",[2],very low toxicity
same,hemolysis of red blood cells,[3],little hemolysis even at a high concentration
same,"antibacterial activity by MBC assay, in words",[4],three times better antibacterial activity than KU-5279
